The target in experiment [1] is T1, HMG-CoA-Reduktase (Rattus norvegicus, UniProt P51639).
T1 construct: solubilisierten Enzympräparationen aus Lebermikrosomen von Ratten; from tissue; host or cells: rat liver microsomes (rats induced with cholestyramine after day-night rhythm shift)
T1 sequence (P51639 1-887): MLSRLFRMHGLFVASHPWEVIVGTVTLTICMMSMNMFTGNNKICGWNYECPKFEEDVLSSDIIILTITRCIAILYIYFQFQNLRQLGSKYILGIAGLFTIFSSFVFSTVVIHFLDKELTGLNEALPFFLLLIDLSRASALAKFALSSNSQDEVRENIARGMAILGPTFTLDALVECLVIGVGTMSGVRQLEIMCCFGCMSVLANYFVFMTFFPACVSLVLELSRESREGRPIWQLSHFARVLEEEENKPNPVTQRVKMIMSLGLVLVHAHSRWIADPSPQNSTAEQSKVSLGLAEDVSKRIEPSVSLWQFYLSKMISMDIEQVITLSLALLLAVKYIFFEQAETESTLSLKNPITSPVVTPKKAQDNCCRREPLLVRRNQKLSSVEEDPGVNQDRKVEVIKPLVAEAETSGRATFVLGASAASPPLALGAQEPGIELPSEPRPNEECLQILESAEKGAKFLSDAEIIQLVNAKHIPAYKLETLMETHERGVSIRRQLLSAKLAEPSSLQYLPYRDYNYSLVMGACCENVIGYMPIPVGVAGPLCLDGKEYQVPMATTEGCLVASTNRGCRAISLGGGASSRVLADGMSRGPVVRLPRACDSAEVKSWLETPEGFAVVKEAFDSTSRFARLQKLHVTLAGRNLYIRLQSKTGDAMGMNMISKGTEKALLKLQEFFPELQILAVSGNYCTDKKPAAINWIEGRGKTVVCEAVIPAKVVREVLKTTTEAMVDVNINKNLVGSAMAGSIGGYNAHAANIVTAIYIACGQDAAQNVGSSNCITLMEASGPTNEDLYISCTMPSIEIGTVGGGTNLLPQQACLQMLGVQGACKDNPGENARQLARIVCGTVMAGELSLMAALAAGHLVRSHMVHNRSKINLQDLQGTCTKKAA
Put plainly: Inhibition of HMG-CoA reductase activity in solubilised enzyme preparations from rat liver microsomes. In kind it is biochemical, Ratten. The following applies: solubilised enzyme from liver microsomes of cholestyramine-induced rats; substrate (S,R)14C-HMG-CoA; mean of 3 parallel samples; read-out: IC50-Wert M. From the text:
1) Inhibierung der HMG-CoA-Reduktase-Aktivität an solubilisierten Enzympräparationen aus Ratten-Lebermikrosomen
Die HMG-CoA-Reduktase-Aktivität wurde an solubilisierten Enzympräparationen aus Lebermikrosomen von Ratten gemessen, die nach Umstellung im Tag-Nacht-Rhythmus mit Cholestyramin (@Cuemid) induziert wurden. Als Substrat diente (S,R)^14C-HMG-CoA, die Konzentration von NADPH wurde während der Inkubation durch ein regenerierendes System aufrechterhalten. Die Abtrennung von ^14C-Me- valonat von Substrat und anderen Produkten (z.B. ^14C-HMG) erfolgte über Säulenelution, wobei das Elutionsprofil jeder Einzelprobe ermittelt wurde. Auf die ständige Mitführung von ^3H-Mevalonat wurde verzichtet, weil es bei der Bestimmung um die Relativangabe der Hemmwirkung handelt. In eine Versuchsreihe wurden jeweils die enzymfreie Kontrolle, der enzymhaltige Normalansatz (= 100%) und solche mit Präparatezusätzen zusammen behandelt. Jeder Einzelwert wurde als Mittelwert aus 3 Parallelproben gebildet. Die Signifikanz der Mittelwertsunterschiede zwischen präparatefreien und präparatehaltigen Proben wurde nach dem t-Test beurteilt. Nach der oben beschriebenen Methode wurden von den erfindungsgemäßen Verbindungen z.B. folgende Hemmwerte auf die HMG-CoA-Reduktase ermittelt (IC50-Wert M = molare Konzentration der Verbindung, die für eine 50%ige Hemmung erforderlich ist): […]

Experiment [2] addresses T2, HMG-CoA-Reduktase (Mus musculus, UniProt Q01237).
T2 construct: dann wurde die HMG-CoA-Reduktaseaktivität der Zellen, modifiziert nach Chang et al; endogenous in cells; host or cells: L cells (fibroblasts)
T2 sequence (Q01237 1-887): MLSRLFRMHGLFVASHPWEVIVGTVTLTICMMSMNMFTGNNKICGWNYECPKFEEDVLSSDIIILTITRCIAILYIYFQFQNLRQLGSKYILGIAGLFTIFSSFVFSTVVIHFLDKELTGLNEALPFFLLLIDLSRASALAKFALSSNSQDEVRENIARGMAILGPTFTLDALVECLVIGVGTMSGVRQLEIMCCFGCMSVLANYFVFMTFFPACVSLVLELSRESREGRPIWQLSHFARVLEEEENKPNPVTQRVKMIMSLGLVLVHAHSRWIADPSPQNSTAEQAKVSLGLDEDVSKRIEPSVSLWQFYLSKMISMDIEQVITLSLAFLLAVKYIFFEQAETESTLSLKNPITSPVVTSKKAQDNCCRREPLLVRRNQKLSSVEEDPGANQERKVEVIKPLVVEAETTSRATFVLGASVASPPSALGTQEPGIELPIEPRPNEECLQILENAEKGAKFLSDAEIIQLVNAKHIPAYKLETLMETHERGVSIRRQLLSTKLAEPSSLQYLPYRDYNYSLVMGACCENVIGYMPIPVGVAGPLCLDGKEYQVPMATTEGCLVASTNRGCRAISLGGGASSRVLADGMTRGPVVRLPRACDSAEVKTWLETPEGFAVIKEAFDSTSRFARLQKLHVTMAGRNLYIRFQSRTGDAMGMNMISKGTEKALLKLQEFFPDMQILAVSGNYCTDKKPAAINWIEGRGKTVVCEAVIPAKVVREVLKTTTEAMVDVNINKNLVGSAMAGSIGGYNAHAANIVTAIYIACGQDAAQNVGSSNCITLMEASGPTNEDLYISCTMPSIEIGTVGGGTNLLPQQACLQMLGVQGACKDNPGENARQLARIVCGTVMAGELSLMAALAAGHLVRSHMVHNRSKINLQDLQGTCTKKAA
Briefly: Suppression or inhibition of HMG-CoA reductase in cell cultures of fibroblasts (L cells). The following applies: 3 h incubation of confluent L-Zellen in lipoprotein-free medium; molar concentration for 50% inhibition of HMG-CoA reductase activity. It counts as cell-based. From the text:
2. Supprimierung bzw. Inhibierung der HMG-CoA-Reduktase in Zellkulturen von Fibroblasten
Monolayers von Fibroblasten (L-Zellen) in lipoproteinfreiem Nährmedium wurden mit entsprechenden Konzentrationen der Prüfsubstanzen eine bestimmte Zeit (z.B. 3 Stunden) inkubiert, dann wurde die HMG-CoA-Reduktaseaktivität der Zellen, modifiziert nach Chang et al. (J. Biol. Chem. 256, 6174 (1981) bestimmt. Dazu wurden die Zellextrakte mit D, L [^3H]-HMG-CoA inkubiert und das unter der Einwirkung der vorhandenen HMG-CoA-Reduktaseaktivität aus den Zellen gebildete Produkt [3H]-Mevalonat nach Cyclisierung zu [^3H]-Mevalonolacton dünnschichtchromatographisch vom Ausgangsprodukt getrennt und unter Verwendung eines internen Standards von ^14C-Mevalonat die Menge des in der Zeiteinheit gebildeten [3H]-Mevalonats, bezogen auf Zellproteinmenge bestimmt. Die unter Zusatz einer bestimmten Konzentration eines Prüfpräparates gefundene HMG-CoA-Reduktaseaktivität der Zellkultur wurde prozentual auf jene einer gleichbehandelten ohne Prüfpräparat, jedoch gleicher Lösungsmittelkonzentration, bezogen.
Unter der Bedingung einer dreistündigen Inkubationszeit konfluenter L-Zellen im lipoproteinfreien Nährmedium mit den untersuchten Verbindungen wurden folgende für eine 50%ige Hemmung der HMG-CoA-Reduktaseaktivität (ICso) erforderliche molare Konzentration der Prüfpräparate ermittelt: […]

For experiment [3] the following is noted: an der Ratte; cited from earlier work.
For experiment [4] the following is noted: im Humanversuch; cited from earlier work.

Like-named read-outs stand apart in the source and are kept apart here.

Take `Cc1cc(Cl)cc(CCCOc2ccc(Cl)cc2)c1OC[C@@H]1C[C@@H](O)CC(=O)O1` [44 x]: the values for the IC50 in experiment [1] and in experiment [2] were 50 nM and 14000 nM, respectively.

Turning to `COc1ccc(C(c2ccc(F)cc2)c2cc(C)cc(C)c2OC[C@@H]2C[C@@H](O)CC(=O)O2)cc1` (stereo partly drawn) [44 v], the IC50 in experiment [1] amounted to 100 nM; in experiment [2], 40000 nM.

As for `Cc1cc(Cl)cc(CCCOc2ccc(F)cc2)c1OC[C@@H]1C[C@@H](O)CC(=O)O1` [44 i], the IC50 turned out to be 75 nM in experiment [1] and 10000 nM in experiment [2].

Regarding `C=CCc1cc(Cl)cc(CCCOc2ccc(F)cc2)c1OC[C@@H]1C[C@@H](O)CC(=O)O1` [44 j], the 50% inhibitory concentration (IC50) in experiment [1] was found to be 460 nM; in experiment [2], 100000 nM.

With `O=C1C[C@H](O)C[C@@H](COc2c(Cl)cc(Cl)cc2CC2CCCCC2)O1` [44 kk], in experiment [1], the half-inhibitory concentration (IC50) is 25 nM.

Regarding `CC(O)(CC(=O)O)CC(=O)O` [3-Hydroxy-3-methyl-glutarsäure], the “cholesterinsenkende Wirkung” value in experiment [3] and in experiment [4] was “signifikante cholesterinsenkende Wirkung” in each case.

With `Cc1cc(C)c(OC[C@@H]2C[C@@H](O)CC(=O)O2)c(CCc2ccc(F)cc2)c1` [44 m], the IC50 in experiment [1] is 530 nM.

Regarding `Cc1cc(C)c(OC[C@@H]2C[C@@H](O)CC(=O)O2)c(CCOc2ccc(F)cc2)c1` [44 t], the IC50 in experiment [1] is 500 nM.

As for `Cc1cc(Cl)cc(C(c2ccc(F)cc2)c2ccc(F)cc2)c1OC[C@@H]1C[C@@H](O)CC(=O)O1` [44 bb], the IC50 in experiment [1] was 100 nM.

As to `Cc1cc(C)c(OC[C@@H]2C[C@@H](O)CC(=O)O2)c(C(C)c2ccc(F)cc2)c1` (stereo partly drawn) [44 r], in experiment [1], the IC50 was 160 nM.

As to `O=C1C[C@H](O)C[C@@H](COc2c(Cl)cc(Cl)cc2-c2ccccc2)O1` [44 mm], the IC50 in experiment [1] was 190 nM.

Turning to `O=C1C[C@H](O)C[C@@H](COc2c(Cl)cc(Cl)cc2C(CCOc2ccc(F)cc2)c2ccc(F)cc2)O1` (stereo partly drawn) [44 dd], the half-maximal inhibitory concentration (IC50) in experiment [1] turned out to be 150 nM.

Regarding `O=C1C[C@H](O)C[C@@H](COc2c(Cl)cc(Cl)cc2C(=O)C2CCCCC2)O1` [44 nn], the half-maximal inhibitory concentration (IC50) in experiment [1] is 190 nM.

`Cc1cc(C)c(OC[C@@H]2C[C@@H](O)CC(=O)O2)c(C(CC(C)C)c2ccc(F)cc2)c1` (stereo partly drawn) [44 u]: in experiment [1], the IC50 worked out at 140 nM.

Consider `Cc1cc(C)c(OC[C@@H]2C[C@@H](O)CC(=O)O2)c(CC2CCCCC2)c1` [44 z], for which the IC50 in experiment [1] was 100 nM.

For `Cc1cc(Cl)cc(CC2CCCCC2)c1OC[C@@H]1C[C@@H](O)CC(=O)O1` [44 y], the results for the IC50 in experiment [1] and in experiment [2] were 75 nM and 15000 nM, respectively.

As for `Cc1cc(C)c(OC[C@@H]2C[C@@H](O)CC(=O)O2)c(Cc2ccc(F)cc2)c1` [44 s], the IC50 in experiment [1] amounted to 400 nM.

In the case of `Cc1cc(C(c2ccc(F)c(C)c2)c2cc(Cl)cc(C)c2OC[C@@H]2C[C@@H](O)CC(=O)O2)ccc1F` [44 hh], in experiment [1], the IC50 came out at 50 nM.

As to `Cc1cc(C)c(OC[C@@H]2C[C@@H](O)CC(=O)O2)c(C(c2ccc(F)cc2)c2ccc(F)cc2)c1` [44 q], the IC50 in experiment [1] came out at 70 nM; in experiment [2], 50000 nM.

Regarding `CC(C)(C)C(=O)OCCCc1cc(Cl)cc(CCCOc2ccc(F)cc2)c1OC[C@@H]1C[C@@H](O)CC(=O)O1` [44 l], in experiment [1], the IC50 turned out to be 7000 nM.
